{
  "source": "paper PMC3350394",
  "about": "“Kinetic analysis and test-retest variability of the radioligand [^11C](R)-PK11195 binding to TSPO in the human brain - a PET study in control subjects” (EJNMMI Research, 2012)",
  "key": {"[1]": {"assay": "Radioligand brain exposure (PET)", "format": "in vivo, human", "description": "To calculate the percentage of [^11C](R)-PK11195 injected that was present in the brain at the time of maximal radioactivity, the radioactivity concentration in the ROI for the whole brain was multiplied by the estimated average brain volume (1,250 mL), divided by the radioactivity injected and multiplied by 100 to obtain the percentage of injected radioactivity.\nAverage radioactivity for the ROI was calculated by pooling the data from the series of brain sections. The radioactivity concentration for each sequential time frame was corrected for the physical decay of carbon-11 and used to obtain the regional time-radioactivity curves (TACs; in kiloBecquerels per cubic centimetre)."}, "[2]": {"assay": "Plasma metabolite analysis using HPLC", "format": "in vivo, human", "from_the_text": "The method for the determination of the fraction of radioactivity corresponding to unchanged [^11C](R)-PK11195 and labelled metabolites during the time of a PET measurement was a modification of a high-performance liquid chromatography (HPLC) method developed for other PET radioligands. […] The HPLC system used consisted of a Merck-Hitachi D-7000 interface module, a Merck-Hitachi L-7100 pump and a Rheodyne injector (7125 with a 5.0-mL loop) (VWR International, Stockholm, Sweden) equipped with a Waters/-Bondapack-C18 column (300 mm × 7.8 mm, 10-μm particle size; Waters, Milford, MA, USA) and a Merck-Hitachi L-7400 absorbance detector (254 nm) in series with a Packard Radiomatic 150TR radiometric detector (Packard BioScience, Meriden, CT, USA) equipped with a PET flow cell (600-μL cell). The HPLC methods used were acetonitrile (A) and phosphoric acid (0.01 M) (B) as mobile phase at 6.0 mL/min. […] The radioactive peak having a retention time corresponding to [^11C](R)-PK11195 was integrated, and its area was expressed as a percentage of the sum of the areas of all detected radioactive peaks."}, "ABCC1": {"tested_on": "ABCC1", "design": "method as in PMID 19948230", "conditions": "cited from earlier work"}, "ABCG2": {"tested_on": "ABCG2", "design": "method as in PMID 19948230", "conditions": "cited from earlier work"}, "TSPO [3]": {"tested_on": "TSPO", "design": "method as in PMID 1782994", "conditions": "grey matter; baboons; indirect quantitative approach; cited from earlier work"}, "TSPO [4]": {"biological_target": "T1, TSPO (Homo sapiens, UniProt P30536)", "T1 sequence (P30536 whole entry)": "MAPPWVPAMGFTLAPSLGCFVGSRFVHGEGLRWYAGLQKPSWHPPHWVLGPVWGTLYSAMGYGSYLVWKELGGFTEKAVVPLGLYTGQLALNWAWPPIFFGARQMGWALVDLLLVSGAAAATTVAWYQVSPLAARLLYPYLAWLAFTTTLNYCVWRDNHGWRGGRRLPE", "assay": "PET, modified 2TCM with shared K1/k2", "format": "in vivo", "design": "from tissue; host or cells: living human brain (in vivo PET in six control subjects)", "conditions": "first PET measurement", "description": "In addition, data were analysed using a modified 2TCM model which fitted parameters K1/k2, k2, k3 and k4 of the model to several TACs simultaneously in a way that the parameter K1/k2 was shared between regions. First, all ROIs primarily consisting of the grey matter, including the ROI of the typical GM uptake, were fitted in this way then followed by a fit involving white matter regions and, again, the ROI of the typical GM uptake. The ROI of the typical GM uptake was used in the second fitting session to allow for a coupling of K1/k2 between that region and white matter ROIs. However, the parameters obtained for the typical GM ROI in the first session were retained for final analysis."}, "TSPO [5]": {"biological_target": "T1, TSPO", "assay": "PET, linear graphical analysis (Logan) distribution volume", "format": "in vivo", "design": "from tissue; host or cells: living human brain (in vivo PET in six control subjects)", "conditions": "for Error % mean(SD) / Error range (%): VT Logan test-retest; for VT Logan: mean(SD)", "description": "The [^11C](R)-PK11195 distribution volume was also quantified using a linear graphical analysis for reversible ligand binding. The regional distribution volumes were determined from the slope of the linear plots obtained from 8 to 60 min after intravenous (i.v.) injection using the radioactivity of unchanged [^11C](R)-PK11195 in arterial plasma as an input function."}, "[6]": {"conditions": "at peak, approximately 1 min after i.v. injection, n = 6"}, "[7]": {"conditions": "by the end of PET measurement time"}, "[8]": {"conditions": "cortical grey matter, individual subjects 1-6"}, "[9]": {"conditions": "cortical grey matter, mean of 6 subjects"}, "[10]": {"conditions": "white matter, individual subjects 1-6"}, "[11]": {"conditions": "white matter, mean of 6 subjects"}},
  "note": "Values joined by “and” are separate entries in the source; they are usually repeats but may differ in a detail not shown here. Equal entries are not always repeated.",
  "data": [
    {"compound": "CC[C@@H](C)N([11CH3])C(=O)c1cc2ccccc2c(-c2ccccc2Cl)n1", "note": "[[^11C](R)-PK11195]", "values": [
      {"measurement": "radioactivity injected (ID%) present in the brain", "setting": "[1]; [6]", "value": "about 2.5%"},
      {"measurement": "radioactivity injected (ID%) present in the brain, range", "setting": "[1]; [6]", "value": "1.9% to 3.2"},
      {"measurement": "time of peak of total brain radioactivity after injection", "setting": "[1]; intravenous injection", "value": "approximately 1 min"},
      {"measurement": "mean ID% in the brain", "setting": "[1]; measurement time from 20 to 60 min", "value": "1.5% to 1.3"},
      {"measurement": "polarity of radioactive metabolites in plasma", "setting": "[2]; HPLC", "value": "more polar than the parent compound"},
      {"measurement": "unchanged fraction in plasma", "setting": "[2]; [7]", "value": "70 ± 1.5", "unit": "%"},
      {"measurement": "unchanged fraction in plasma, range", "setting": "[2]; [7]", "value": "60% to 77"},
      {"measurement": "metabolism", "setting": "[2]; human plasma", "value": "not extensive"},
      {"measurement": "substrate for ABC transporter", "setting": "ABCC1", "value": "not a substrate"},
      {"measurement": "substrate for ABC transporter", "setting": "ABCG2", "value": "not a substrate"},
      {"measurement": "fraction of non-specifically bound radioligand", "setting": "TSPO [3]", "value": "about 60%"},
      {"measurement": "k2", "setting": "TSPO [4]; cortical grey matter", "value": 0.228, "unit": "min⁻¹"},
      {"measurement": "k3", "setting": "TSPO [4]; cortical grey matter", "value": 0.053, "unit": "min⁻¹"},
      {"measurement": "K1", "setting": "TSPO [4]; [8]", "value": "0.050 mL/cc/min and 0.092 mL/cc/min and 0.070 mL/cc/min and 0.089 mL/cc/min and 0.046 mL/cc/min and 0.080 mL/cc/min"},
      {"measurement": "k2", "setting": "TSPO [4]; [8]", "value": "0.180 min⁻¹ and 0.236 min⁻¹ and 0.228 min⁻¹ and 0.307 min⁻¹ and 0.185 min⁻¹ and 0.235 min⁻¹"},
      {"measurement": "k3", "setting": "TSPO [4]; [8]", "value": "0.021 min⁻¹ and 0.055 min⁻¹ and 0.046 min⁻¹ and 0.124 min⁻¹ and 0.035 min⁻¹ and 0.036 min⁻¹"},
      {"measurement": "k4", "setting": "TSPO [4]; [8]", "value": "0.014 min⁻¹ and 0.054 min⁻¹ and 0.025 min⁻¹ and 0.061 min⁻¹ and 0.026 min⁻¹ and 0.020 min⁻¹"},
      {"measurement": "K1", "setting": "TSPO [4]; [9]", "value": 0.071, "unit": "mL/cc/min"},
      {"measurement": "k4", "setting": "TSPO [4]; [9]", "value": 0.033, "unit": "min⁻¹"},
      {"measurement": "k2", "setting": "TSPO [4]; white matter", "value": 0.159, "unit": "min⁻¹"},
      {"measurement": "k3", "setting": "TSPO [4]; white matter", "value": 0.036, "unit": "min⁻¹"},
      {"measurement": "K1", "setting": "TSPO [4]; [10]", "value": "0.067 mL/cc/min and 0.056 mL/cc/min and 0.062 mL/cc/min and 0.032 mL/cc/min and 0.061 mL/cc/min and 0.036 mL/cc/min"},
      {"measurement": "k2", "setting": "TSPO [4]; [10]", "value": "0.169 min⁻¹ and 0.180 min⁻¹ and 0.159 min⁻¹ and 0.129 min⁻¹ and 0.182 min⁻¹ and 0.138 min⁻¹"},
      {"measurement": "k3", "setting": "TSPO [4]; [10]", "value": "0.040 min⁻¹ and 0.045 min⁻¹ and 0.046 min⁻¹ and 0.026 min⁻¹ and 0.033 min⁻¹ and 0.024 min⁻¹"},
      {"measurement": "k4", "setting": "TSPO [4]; [10]", "value": "0.033 min⁻¹ and 0.021 min⁻¹ and 0.027 min⁻¹ and 0.013 min⁻¹ and 0.012 min⁻¹"},
      {"measurement": "K1", "setting": "TSPO [4]; [11]", "value": 0.052, "unit": "mL/cc/min"},
      {"measurement": "k4", "setting": "TSPO [4]; [11]", "value": 0.020, "unit": "min⁻¹"},
      {"measurement": "Error % mean(SD)", "setting": "TSPO [5]; brainstem", "value": "-8(12) %"},
      {"measurement": "Error range (%)", "setting": "TSPO [5]; brainstem", "value": "-24 to 12", "unit": "%"},
      {"measurement": "VT Logan", "setting": "TSPO [5]; brainstem, retest", "value": "0.67(0.19)"},
      {"measurement": "VT Logan", "setting": "TSPO [5]; brainstem, test", "value": "0.74(0.21)"},
      {"measurement": "Error % mean(SD)", "setting": "TSPO [5]; caudate", "value": "-5(23) %"},
      {"measurement": "Error range (%)", "setting": "TSPO [5]; caudate", "value": "-37 to 25", "unit": "%"},
      {"measurement": "VT Logan", "setting": "TSPO [5]; caudate, retest", "value": "0.59(0.19)"},
      {"measurement": "VT Logan", "setting": "TSPO [5]; caudate, test", "value": "0.64(0.16)"},
      {"measurement": "Error % mean(SD)", "setting": "TSPO [5]; cerebellum", "value": "-4(18) %"},
      {"measurement": "Error range (%)", "setting": "TSPO [5]; cerebellum", "value": "-29 to 20", "unit": "%"},
      {"measurement": "VT Logan", "setting": "TSPO [5]; cerebellum, retest", "value": "0.68(0.18)"},
      {"measurement": "VT Logan", "setting": "TSPO [5]; cerebellum, test", "value": "0.72(0.18)"},
      {"measurement": "Error % mean(SD)", "setting": "TSPO [5]; grey matter", "value": "-4(16) %"},
      {"measurement": "Error range (%)", "setting": "TSPO [5]; grey matter", "value": "-28 to 17", "unit": "%"},
      {"measurement": "VT Logan", "setting": "TSPO [5]; grey matter, retest", "value": "0.65(0.18)"},
      {"measurement": "VT Logan", "setting": "TSPO [5]; grey matter, test", "value": "0.69(0.17)"},
      {"measurement": "Error % mean(SD)", "setting": "TSPO [5]; putamen", "value": "3(25) %"},
      {"measurement": "Error range (%)", "setting": "TSPO [5]; putamen", "value": "-25 to 42", "unit": "%"},
      {"measurement": "VT Logan", "setting": "TSPO [5]; putamen, retest", "value": "0.73(0.26)"},
      {"measurement": "VT Logan", "setting": "TSPO [5]; putamen, test", "value": "0.70(0.15)"},
      {"measurement": "Error % mean(SD)", "setting": "TSPO [5]; thalamus", "value": "-3(20) %"},
      {"measurement": "Error range (%)", "setting": "TSPO [5]; thalamus", "value": "-26 to 27", "unit": "%"},
      {"measurement": "VT Logan", "setting": "TSPO [5]; thalamus, retest", "value": "0.76(0.25)"},
      {"measurement": "VT Logan", "setting": "TSPO [5]; thalamus, test", "value": "0.80(0.24)"},
      {"measurement": "Error % mean(SD)", "setting": "TSPO [5]; white matter", "value": "-4(19) %"},
      {"measurement": "Error range (%)", "setting": "TSPO [5]; white matter", "value": "-32 to 19", "unit": "%"},
      {"measurement": "VT Logan", "setting": "TSPO [5]; white matter, retest", "value": "0.65(0.20)"},
      {"measurement": "VT Logan", "setting": "TSPO [5]; white matter, test", "value": "0.69(0.18)"},
      {"measurement": "Error % mean(SD)", "setting": "TSPO [5]; whole brain", "value": "-4(16) %"},
      {"measurement": "Error range (%)", "setting": "TSPO [5]; whole brain", "value": "-29 to 17", "unit": "%"},
      {"measurement": "VT Logan", "setting": "TSPO [5]; whole brain, retest", "value": "0.65(0.19)"},
      {"measurement": "VT Logan", "setting": "TSPO [5]; whole brain, test", "value": "0.69(0.17)"}
    ]}
  ]
}
